The results in this text go back to publication PMC8746493, “Co-Inhibition of P-gp and Hsp90 by an Isatin-Derived Compound Contributes to the Increase of the Chemosensitivity of MCF7/ADR-Resistant Cells to Doxorubicin” (Molecules, 2021).

The test deals with T1, Hsp90α (Homo sapiens, UniProt P07900).
T1 construct: gene HSP90AA1; full length protein
The experiment in a line: SPR (Biacore […], immobilized recombinant Hsp90α). The class given is binding. Background: Surface plasmon resonance follows binding to a sensor surface in real time, without labels.

For `O=C(CN1C(=O)NC(c2ccccc2)(c2ccccc2)C1=O)NN=C1C(=O)Nc2ccc(F)cc21` [compound 16, HAA2021], the Kd turned out to be 41.2 ± 2.1 nM.

One may read the Kd as a measure of binding affinity in units of concentration.
